Measured values: patent EP4567035A1, “NOVEL COMPOUND AS HYPOXIA-INDUCIBLE FACTOR 1(HIF-1) INHIBITOR OR VASCULAR ENDOTHELIAL GROWTH FACTOR (VEGF) INHIBITOR, AND PHARMACEUTICAL COMPOSITION COMPRISING SAME” (Nextgen Bioscience Co., Ltd., priority 2022, dated 2024)

Experiments:
[1] = test system: VEGF; test: Evaluation of VEGF protein secretion level (Human VEGF ELISA) in ARPE-19 cell medium under hypoxic conditions; assay type: cell-based; conditions: ARPE-19 cells; pretreated 2 hours, 24 hours hypoxic conditions; secreted VEGF in medium supernatant by ELISA; concentration range reducing VEGF by 50% vs untreated control; read-out: IC50 VEGF
Summary of the method: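 Human ARPE-19 cells were pretreated 2 h with compound (0.1 nM–10 µM, in DMEM/F12 with 1% FBS), then held 24 h in hypoxia (1% O2, 5% CO2). Secreted VEGF in the supernatant was quantified by ELISA (A450). The value is the concentration range giving ≥50% VEGF reduction versus untreated control.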

[2] = molecular target: T1, HIF-1α (Homo sapiens, UniProt Q16665); test: Analysis of HIF-1α protein expression (Western blot) in ARPE-19 cells under mixed hypoxic condition; assay type: cell-based; conditions: values marked * in the table, mixed hypoxic condition (1% oxygen + CoCl2) for 24 hours, concentration range at which HIF-1α expression is reduced by 50% vs untreated control, read-out: IC50 HIF-1α, Hypoxia(24h)
T1 construct: endogenous in cells; host or cells: ARPE-19 (ATCC CRL-2302)
Summary of the method: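 ARPE-19 cells were pretreated 16 h or 2 h with compound (0.1 nM–10 µM, serum-free DMEM/F12), then held 1 h or 24 h in mixed hypoxia (1% O2 plus CoCl2). HIF-1α was quantified by Western blot against β-actin; the concentration range giving ≥50% reduction vs untreated control was reported.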

T1 sequence (Q16665 whole entry): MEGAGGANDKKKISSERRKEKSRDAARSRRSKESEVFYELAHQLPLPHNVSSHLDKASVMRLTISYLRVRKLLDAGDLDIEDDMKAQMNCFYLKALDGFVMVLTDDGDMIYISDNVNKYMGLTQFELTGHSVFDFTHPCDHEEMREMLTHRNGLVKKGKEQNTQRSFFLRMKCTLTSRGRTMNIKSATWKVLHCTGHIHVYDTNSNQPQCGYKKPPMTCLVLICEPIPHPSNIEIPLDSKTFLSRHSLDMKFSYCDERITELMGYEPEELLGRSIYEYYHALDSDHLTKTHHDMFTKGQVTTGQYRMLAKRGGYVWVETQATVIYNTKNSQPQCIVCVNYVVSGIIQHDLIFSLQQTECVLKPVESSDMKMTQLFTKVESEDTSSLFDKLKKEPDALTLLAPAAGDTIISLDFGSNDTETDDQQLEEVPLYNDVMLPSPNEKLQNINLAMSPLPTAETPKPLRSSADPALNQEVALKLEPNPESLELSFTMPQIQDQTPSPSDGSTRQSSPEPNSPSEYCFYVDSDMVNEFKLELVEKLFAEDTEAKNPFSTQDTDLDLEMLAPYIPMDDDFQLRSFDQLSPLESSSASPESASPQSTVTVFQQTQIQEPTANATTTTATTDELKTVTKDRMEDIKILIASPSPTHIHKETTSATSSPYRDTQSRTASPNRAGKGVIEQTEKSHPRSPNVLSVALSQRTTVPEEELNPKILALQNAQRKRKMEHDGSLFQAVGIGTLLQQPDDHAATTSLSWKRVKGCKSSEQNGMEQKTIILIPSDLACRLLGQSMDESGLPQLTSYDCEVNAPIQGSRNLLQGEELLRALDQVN

Row | Structure (SMILES) | IC50 [1] | DC50 [2]
1 | O=C(NCc1cc(F)cc(-c2cnn(C3CCOC3)c2)c1)c1ncnc2nc(C3CCCC3)[nH]c12 (stereo not drawn) [Example 140, 8-Cyclopentyl-N-(3-fluoro-5-(1-(tetrahydrofuran-3-yl)-1H-pyrazol-4-yl)benzyl)-7H-purine-6-carboxamide] | > 10000 nM | < 100 nM
2 | O=C(NCc1cc(F)cc(-c2cnn(-c3cc[s+]([O-])c3)c2)c1)c1ncnc2nc(C3CCCC3)[nH]c12 (stereo not drawn) [Example 143, 8-Cyclopentyl-N-(3-fluoro-5-(1-(1-oxidothiophen-3-yl)-1H-pyrazol-4-yl)benzyl)-7H-purine-6-carboxamide] | > 10000 nM | 1000 to 10000 nM
3 | Cn1cc(Nc2cc(F)cc(CNC(=O)c3ncnc4nc(C5CCC(F)(F)C5)[nH]c34)c2)cn1 (stereo not drawn) [Example 144, 8-(3,3-Difluorocyclopentyl)-N-(3-fluoro-5-((1-methyl-1H-pyrazol-4-yl)amino)benzyl)-7H-purine-6-carboxamide] | 100 to 1000 nM | < 100 nM
4 | [2H]c1c([2H])c([2H])c(-n2cc(-c3cc(F)cc(CNC(=O)c4ncnc5nc(C6CCCC6)[nH]c45)c3)cn2)c([2H])c1[2H] [Example 145, 8-Cyclopentyl-N-(3-fluoro-5-(1-phenyl-d5-1H-pyrazol-4-yl)benzyl)-7H-purine-6-carboxamide] | 100 to 1000 nM | < 100 nM
5 | Cc1nn(-c2ccc(F)cc2)cc1-c1cc(F)cc(CNC(=O)c2ncnc3nc(C4CCCC4)[nH]c23)c1 [Example 146, 8-Cyclopentyl-N-(3-fluoro-5-(1-(4-fluorophenyl)-3-methyl-1H-pyrazol-4-yl)benzyl)-7H-purine-6-carboxamide] | 100 to 1000 nM | 100 to 1000 nM
6 | Cc1c(-c2cc(F)cc(CNC(=O)c3ncnc4nc(C5CCCC5)[nH]c34)c2)cnn1-c1ccc(F)cc1 [Example 147, 8-Cyclopentyl-N-(3-fluoro-5-(1-(4-fluorophenyl)-5-methyl-1H-pyrazol-4-yl)benzyl)-7H-purine-6-carboxamide] | 100 to 1000 nM | 100 to 1000 nM
7 | COC(=O)C(Cc1ccc(-n2cc(-c3cc(F)cc(CNC(=O)c4ncnc5nc(C6CCCC6)[nH]c45)c3)cn2)cc1)NC(=O)c1ncnc2nc(C3CCCC3)[nH]c12 (stereo not drawn) [Example 150, Methyl 2-(8-cyclopentyl-7H-purine-6-carboxamido)-3-(4-(4-(3-((8-cyclopentyl-7H-purine-6-carboxamido)methyl)-5-fluorophenyl)-1H-pyrazol-1-yl)phenyl)propanoate] | > 10000 nM | 100 to 1000 nM
8 | [2H]C([2H])([2H])n1cc(Nc2cc(F)cc(CNC(=O)c3ncnc4nc(C5CCCC5)[nH]c34)c2)cn1 [Example 151, 8-Cyclopentyl-N-(3-fluoro-5-((1-(methyl-d3)-1H-pyrazol-4-yl)amino)benzyl)-7H-purine-6-carboxamide] | 100 to 1000 nM | < 100 nM
9 | [2H]C([2H])([2H])n1cc(Nc2cc(F)cc(CNC(=O)c3ncnc4nc(C5CCC(F)(F)C5)[nH]c34)c2)cn1 (stereo not drawn) [Example 152, 8-(3,3-Difluorocyclopentyl)-N-(3-fluoro-5-((1-(methyl-d3)-1H-pyrazol-4-yl)amino)benzyl)-7H-purine-6-carboxamide] | 100 to 1000 nM | < 100 nM
10 | [2H]C1([2H])C(c2nc3ncnc(C(=O)NCc4cc(F)cc(-c5cnn(-c6ccc(F)cc6)c5)c4)c3[nH]2)C([2H])([2H])C([2H])([2H])C1([2H])[2H] [Example 153, 8-(Cyclopentyl-2,2,3,3,4,4,5,5-d8)-N-(3-fluoro-5-(1-(4-fluorophenyl)-1H-pyrazol-4-yl)benzyl)-7H-purine-6-carboxamide] | 100 to 1000 nM | < 100 nM

Next, values leading:

Row | IC50 [1] | DC50 [2] | Structure (SMILES)
11 | < 100 nM | < 100 nM | O=C(NCc1cc(F)cc(-c2cnn(C3CCCCC3)c2)c1)c1ncnc2nc(C3CCCC3)[nH]c12 [Example 139, N-(3-(1-cyclohexyl-1H-pyrazol-4-yl)-5-fluorobenzyl)-8-cyclopentyl-7H-purine-6-carboxamide]
12 | < 100 nM | < 100 nM | O=C(NCc1cc(F)cc(-c2cnn(-c3cscn3)c2)c1)c1ncnc2nc(C3CCCC3)[nH]c12 [Example 141, 8-Cyclopentyl-N-(3-fluoro-5-(1-(thiazol-4-yl)-1H-pyrazol-4-yl)benzyl)-7H-purine-6-carboxamide]
13 | > 10000 nM | 100 to 1000 nM | Cn1ccc(Nc2cc(F)cc(CNC(=O)c3ncnc4nc(C5CCCC5)[nH]c34)c2)c1 [Example 142, 8-Cyclopentyl-N-(3-fluoro-5-((1-methyl-1H-pyrrol-3-yl)amino)benzyl)-7H-purine-6-carboxamide]
14 | 100 to 1000 nM | < 100 nM | [2H]c1c([2H])c([2H])c(-n2cc(-c3cc(F)cc(CNC(=O)c4ncnc5nc(C6CCC(F)(F)C6)[nH]c45)c3)cn2)c([2H])c1[2H] (stereo not drawn) [Example 148, 8-(3,3-Difluorocyclopentyl)-N-(3-fluoro-5-(1-(phenyl-d5)-1H-pyrazol-4-yl)benzyl)-7H-purine-6-carboxamide]
15 | > 10000 nM | 100 to 1000 nM | O=C(NCc1cc(F)cc(-n2cc(-c3ccc(F)cc3)cn2)c1)c1ncnc2nc(C3CCCC3)[nH]c12 [Example 149, 8-Cyclopentyl-N-(3-fluoro-5-(4-(4-fluorophenyl)-1H-pyrazol-1-yl)benzyl)-7H-purine-6-carboxamide]
